Assay results published in US20200009168A1, “MICROBIOME REGULATORS AND RELATED USES THEREOF” (KALEIDO BIOSCIENCES, INC., priority 2015, published 2020).

Experiments:
[1] = tested on: panel of 10 commensals; experiment: Sugar-supported growth, whole panel of 10 commensals; type: cell-based; settings: 0.5% w/v sugar, summary in words
Description: (§1) An in vitro assay was performed to assess the ability of various bacterial strains, including commensals of the gastrointestinal tract, to utilize different sugars as growth substrates. This assay was designed to assess the ability of selected natural monosaccharides, disaccharides and synthetic sugars to promote the growth of microbiota associated with a healthy state. Bacterial strains were handled at all steps in an anaerobic chamber (AS-580, Anaerobe Systems) featuring a palladium catalyst. The chamber was initially made anaerobic by purging with an anaerobic gas mixture of 5% hydrogen, 5% carbon dioxide and 90% nitrogen and subsequently maintained in an anaerobic state using this same anaerobic gas mixture. Anaerobicity of the chamber was confirmed daily using Oxoid anaerobic indicator strips that change color in the presence of oxygen. All culture media, assay plates, other reagents and plastic consumables were pre-reduced in the anaerobic chamber for 24-48 hours prior to contact with bacteria. Sugars were prepared at 5% w/v in water, filter-sterilized and added to Costar 3370 assay plates for a final concentration of 0.5% w/v in the assay, with each microbiome regulator assayed in two non-adjacent wells and dextrose and water supplied as positive and negative controls.
(§2) Bacterial isolates were obtained from the American Type Culture Collection (ATCC) and Leibniz Institute DSMZ-German Institute of Microorganisms and Cell Cultures (DSMZ). Cultures of the Bacteroidetes Bacteroides caccae ATCC 43185 “BCA.26”, Bacteroides thetaiotaomicron ATCC 29741 “BTH.8”, Bacteroides cellulosilyticus DSM 14838 “BCE.71”, Parabacteroides distasonis ATCC 8503 “PDI.6” and Prevotella copri DSM 18205 “PCO.72”; the Clostridiales Clostridium scindens ATCC 35704 “CSC.32”, Dorea formicigenerans ATCC 27755 “DFO.36” and Ruminococcus obeum ATCC 29714 “ROB.74”; and the Bifidobacteria Bifidobacterium longum ATCC 15707 “BLO.16” and Bifidobacterium longum DSM 20088 “BLO.83”, were grown anaerobically in Chopped Meat Glucose broth (CMG, Anaerobe Systems), a pre-reduced enriched medium including lean ground beef, enzymatic digest of casein, yeast extract, potassium phosphate, dextrose, cysteine, hemin and Vitamin K1, for 18-48 hours at 37° C. Inocula were prepared by determining the optical density of each culture at […] (OD600) in a Costar 3370 polystyrene 96-well flat-bottom assay plate using a Biotek Synergy 2 plate reader with Gen5 2.0 All-In-One Microplate Reader Software according to manufacturer's protocol, and diluting the cells to OD600 0.01 final in defined and semi-defined media that were prepared without sugars. D. formicigenerans, P. distasonis and B. longum isolates were tested in 900 mg/L sodium chloride, 26 mg/L calcium chloride dihydrate, 20 mg/L magnesium chloride hexahydrate, 10 mg/L manganese chloride tetrahydrate, 40 mg/L ammonium sulfate, 4 mg/L iron sulfate heptahydrate, 1 mg/L cobalt chloride hexahydrate, 300 mg/L potassium phosphate dibasic, 1.5 g/L sodium phosphate dibasic, 5 g/L sodium bicarbonate, 0.125 mg/L biotin, 1 mg/L pyridoxine, […], 75 mg/L histidine, 75 mg/L glycine, 75 mg/L tryptophan, 150 mg/L arginine, 150 mg/L methionine, 150 mg/L threonine, 225 mg/L valine, 225 mg/L isoleucine, 300 mg/L leucine, 400 mg/L cysteine, and 450 mg/L proline (Theriot C M et al. Nat Commun. 2014; 5:3114), supplemented with 0-3.5% (v/v) CMG. B. thetaiotaomicron, B. caccae and B. cellulosyliticus were tested in 100 mM potassium phosphate buffer (pH 7.2), 15 mM sodium chloride, 8.5 mM ammonium sulfate, 4 mM L-cysteine, 1.9 μM hematin, 200 μM L-histidine, 100 μM magnesium chloride, 1.4 μM iron sulfate heptahydrate, 50 μM calcium chloride, 1 μg/mL vitamin K3 and 5 ng/mL vitamin B12 (Martens E C et al. Cell Host & Microbe 2008; 4, 447-457). […]

[2] = tested on: Dorea formicigenerans ATCC 27755 "DFO.36"; experiment: Sugar-supported growth of commensal bacteria, DFO.36; type: cell-based; settings: 0.5% w/v sugar, 37° C., 18-24 hours, anaerobic; OD600 divided by OD600 with 0.5% w/v dextrose
Description: as §1, §2

[3] = tested on: Bifidobacterium longum ATCC 15707 "BLO.16"; experiment: Sugar-supported growth of commensal bacteria, BLO.16; type: cell-based; settings: 0.5% w/v sugar, 37° C., 18-24 hours, anaerobic; OD600 divided by OD600 with 0.5% w/v dextrose
Description: as §1, §2

[4] = tested on: Bifidobacterium longum DSM 20088 "BLO.83"; experiment: Sugar-supported growth of commensal bacteria, BLO.83; type: cell-based; settings: 0.5% w/v sugar, 37° C., 18-24 hours, anaerobic; OD600 divided by OD600 with 0.5% w/v dextrose
Description: as §1
Bacterial isolates were obtained from the American Type Culture Collection (ATCC) and Leibniz Institute DSMZ-German Institute of Microorganisms and Cell Cultures (DSMZ). Cultures of the Bacteroidetes Bacteroides caccae ATCC 43185 “BCA.26”, Bacteroides thetaiotaomicron ATCC 29741 “BTH.8”, Bacteroides cellulosilyticus DSM 14838 “BCE.71”, Parabacteroides distasonis ATCC 8503 “PDI.6” and Prevotella copri DSM 18205 “PCO.72”; the Clostridiales Clostridium scindens ATCC 35704 “CSC.32”, Dorea formicigenerans ATCC 27755 “DFO.36” and Ruminococcus obeum ATCC 29714 “ROB.74”; and the Bifidobacteria Bifidobacterium longum ATCC 15707 “BLO.16” and Bifidobacterium longum DSM 20088 “BLO.83”, were grown anaerobically in Chopped Meat Glucose broth (CMG, Anaerobe Systems), a pre-reduced enriched medium including lean ground beef, enzymatic digest of casein, yeast extract, potassium phosphate, dextrose, cysteine, hemin and Vitamin K1, for 18-48 hours at 37° C. Inocula were prepared by determining the optical density of each culture at […] (OD600) in a Costar 3370 polystyrene 96-well flat-bottom assay plate using a Biotek Synergy 2 plate reader with Gen5 2.0 All-In-One Microplate Reader Software according to manufacturer's protocol, and diluting the cells to OD600 0.01 final in defined and semi-defined media that were prepared without sugars. […]

[5] = tested on: Parabacteroides distasonis ATCC 8503 "PDI.6"; experiment: Sugar-supported growth of commensal bacteria, PDI.6; type: cell-based; settings: 0.5% w/v sugar, 37° C., 18-24 hours, anaerobic; OD600 divided by OD600 with 0.5% w/v dextrose
Description: as §1, §2

[6] = tested on: Prevotella copri DSM 18205 "PCO.72"; experiment: Sugar-supported growth of commensal bacteria, PCO.72; type: cell-based; settings: 0.5% w/v sugar, 37° C., 18-24 hours, anaerobic; OD600 divided by OD600 with 0.5% w/v dextrose
Description: as §1, §2

[7] = tested on: Clostridium scindens ATCC 35704 "CSC.32"; experiment: Sugar-supported growth of commensal bacteria, CSC.32; type: cell-based; settings: 0.5% w/v sugar, 37° C., 18-24 hours, anaerobic; OD600 divided by OD600 with 0.5% w/v dextrose
Description: as §1, §2

[8] = tested on: Bacteroides caccae ATCC 43185 "BCA.26"; experiment: Sugar-supported growth of commensal bacteria, BCA.26; type: cell-based; settings: 0.5% w/v sugar, 37° C., 18-24 hours, anaerobic; OD600 divided by OD600 with 0.5% w/v dextrose
Description: as §1, §2

[9] = tested on: Bacteroides cellulosilyticus DSM 14838 "BCE.71"; experiment: Sugar-supported growth of commensal bacteria, BCE.71; type: cell-based; settings: 0.5% w/v sugar, 37° C., 18-24 hours, anaerobic; OD600 divided by OD600 with 0.5% w/v dextrose
Description: as §1, §2

[10] = tested on: Bacteroides thetaiotaomicron ATCC 29741 "BTH.8"; experiment: Sugar-supported growth of commensal bacteria, BTH.8; type: cell-based; settings: 0.5% w/v sugar, 37° C., 18-24 hours, anaerobic; OD600 divided by OD600 with 0.5% w/v dextrose
Description: as §1, §2

[11] = tested on: Ruminococcus obeum ATCC 29714 "ROB.74"; experiment: Sugar-supported growth of commensal bacteria, ROB.74; type: cell-based; settings: 0.5% w/v sugar, 37° C., 18-24 hours, anaerobic; OD600 divided by OD600 with 0.5% w/v dextrose
Description: as §1, §2

[12] = studies by McCance et al (J Biol Chem (1930) 24:795-804); cited from earlier work
[13] = tested on: colonic regulatory T cells; settings: in mice or in vitro; cited from earlier work

| Structure (SMILES) | taxa or strains of the commensal panel whose growth was supported [1] | Average Normalized Growth (NGV), DFO.36 [2] | Average Normalized Growth (NGV), BLO.16 [3] | Average Normalized Growth (NGV), BLO.83 [4] | Average Normalized Growth (NGV), PDI.6 [5] | Average Normalized Growth (NGV), PCO.72 [6] | Average Normalized Growth (NGV), CSC.32 [7] | Average Normalized Growth (NGV), BCA.26 [8] | Average Normalized Growth (NGV), BCE.71 [9] | Average Normalized Growth (NGV), BTH.8 [10] | Average Normalized Growth (NGV), ROB.74 [11] | absorption by the gastrointestinal tract [12] | expression of Foxp3, a T cell regulatory factor [13] | expression of IL-10, an anti-inflammatory cytokine [13] |
| --- | --- | --- | --- | --- | --- | --- | --- | --- | --- | --- | --- | --- | --- | --- |
| O=C(CO)[C@@H](O)[C@H](O)[C@H](O)CO [D-fructose] | supported some commensals from the taxa Bacteroidetes, Firmicutes, including Lachnospiraceae, and Bifidobacteria | +++ (>1) | +++ (>1) | +++ (>1) | +++ (>1) | ++ (0.6-1) | +++ (>1) | ++ (0.6-1) | +++ (>1) | ++ (0.6-1) | ++ (0.6-1) | – | – | – |
| O=C[C@H](O)[C@@H](O)[C@@H](O)[C@H](O)CO [D-galactose] | supported some commensals from the taxa Bacteroidetes, Firmicutes, including Lachnospiraceae, and Bifidobacteria | + (0.2-0.6) | − (<0.2) | +++ (>1) | +++ (>1) | +++ (>1) | ++ (0.6-1) | ++ (0.6-1) | +++ (>1) | +++ (>1) | + (0.2-0.6) | readily absorbed | – | – |
| C[C@H](O)[C@H](O)[C@@H](O)[C@@H](O)C=O [L-rhamnose] | – | − (<0.2) | − (<0.2) | – | − (<0.2) | + (0.2-0.6) | − (<0.2) | − (<0.2) | – | + (0.2-0.6) | – | are not | – | – |
| O=C[C@@H](O)[C@H](O)[C@H](O)CO [arabinose] | – | – | – | – | – | – | – | – | – | – | – | are not | – | – |
| OC[C@H]1O[C@@H](O[C@H]2[C@H](O)[C@@H](O)C(O)O[C@@H]2CO)[C@H](O)[C@@H](O)[C@H]1O (stereo partly drawn) [lactose] | supported some commensals from the taxa Bacteroidetes, Firmicutes, including Lachnospiraceae, and Bifidobacteria | +++ (>1) | ++ (0.6-1) | +++ (>1) | +++ (>1) | +++ (>1) | +++ (>1) | +++ (>1) | +++ (>1) | +++ (>1) | ++ (0.6-1) | – | – | – |
| CCC(=O)O [propionate, propionic acid] | – | – | – | – | – | – | – | – | – | – | – | – | increased | increased |
